What was measured:
[1] = system: serum iPTH concentration; test: Serum iPTH concentration in bilaterally nephrectomized rats after single intravenous administration; assay type: in vivo, rat
Source text: After quarantine and acclimatization periods of 6 days, fifty-one rats (Crl: CD (SD), male) aged 7 weeks were fed a 100% sucrose diet ad libitum from four days before the surgery. On the day of the surgery, skin incisions were made on the back at the sites of the right and left kidneys under isoflurane anesthesia and the renal capsules were removed to ligate the renal arteries and veins and the ureters using threads before removing the right and left kidneys. A penicillin solution was given upon suturing, and 5 mL of physiological saline was intraperitoneally administered before returning the rats into the breeding cages.
On the day of administering the test substance, for example, a day after the bilaterally nephrectomy, approximately 100 μL of blood was collected from the tail vein without anesthesia using a capillary tube, which was centrifuged in a high speed refrigerated microcentrifuge (10,000 rpm, 5 min, 4° C.) to separate the serum. Thereafter, the serum Ca concentration was measured with a dri-chemanalyzer (model number: FUJI DRI-CHEM 7000, manufacturer: FUJI FILM Medical Co., Ltd.) to select individuals with a serum Ca concentration of 8.0 mg/dL or more and less than 14.0 mg/dL.
On a day after the bilaterally nephrectomy, the given doses were calculated based on the weight of the selected animals on that day. Group 1 was given a medium (physiological saline), Groups 2, 3 and 4 were given the Compound A1 solution (0.3, 3 and 30 mg/mL, respectively), and Groups 5, 6, 7 and 8 (5 rats per group) were given the comparative compound (0.3, 1, 3 and 10 mg/mL, respectively), each given a single dose of 1 ml/kg from the tail vein. Prior to the administration (0 hours), and 24 and 48 hours after the administration, approximately 300 μL of blood was collected without anesthesia from the tail vein using capillary tubes for obtaining the serum. The blood for obtaining the serum was left to stand at room temperature, and centrifuged in a high speed refrigerated microcentrifuge (10,000 rpm, 5 min, 4° C.) within a period of 30 minutes to 2 hours after the blood collection to collect the serum.
Thereafter, the serum Ca was analyzed with COBAS analyzer (Model number: COBAS INTEGRA 400 plus, manufacturer: Roche Diagnostics K.K.), and the remaining serum was stored in an ultra-low freezer (temperature set to −80±15° C.) until the day of iPTH measurement. On the day of iPTH measurement, the serum was melted at room temperature for measurement.
A 30 mg/ml Compound A1 solution ([…] of Compound A1 dissolved in 10 ml of physiological saline) was diluted with physiological saline to prepare 0.3 mg/ml and […] Compound A1 solutions.
149 mg of etelcalcetide (Ac-c(C) arrrar-NH2) TFA salt (WO 2011/014707 A) was prepared to have pH of 6 to 8 with 7 ml of physiological saline and a 0.5N aqueous NaOH solution, and physiological saline was further added thereto to make 10 ml. The prepared 10 mg/ml comparative compound solution was diluted with physiological saline to obtain 0.3 mg/ml and 1 mg/ml comparative compound solutions.

[2] = system: SHPT patients on maintenance hemodialysis; test: Phase I/II clinical trial, single administration; assay type: in vivo, human; settings: for percentage decrease in the serum iPTH concentration: 66 hours after the administration
Method: Targeting SHPT patients on maintenance hemodialysis, pharmacokinetics, pharmacodynamics and safety upon single or repeated intravenous administration of Compound A1 were examined by conducting a double-blind test using a placebo as a control.
Single administration: Based on the clinically effective dose calculated in Reference Example 5, the doses were given at 0.025 mg, 0.05 mg, 0.1 mg, 0.2 mg, 0.4 mg, 0.6 mg, and 0.8 mg (7 steps). On the day of trial drug administration, the trial drug was intravenously administered as slow as possible within 60 seconds 2 to 4 hours following the end of dialysis. Here, the trial drug was administered by diluting a required dose taken from the Compound A1 vial formulation prepared as follows with sterilized water for injection, and filling a syringe with the resultant in accordance with the dose to be administered.
Each item was evaluated according to the predetermined evaluation schedule.
A vial formulation encapsulating 1 mg of Compound A1 in terms of a dehydrate, and sodium chloride, disodium hydrogen phosphate dodecahydrate, and sodium dihydrogen phosphate dihydrate as additives in 10 ml of sterilized water for injection

## Cc1c(Cl)cc(S(=O)(=O)[O-])cc1NC(=O)NC[C@H](N)C(=O)O.[Na+] [Compound A1, sodium 3-{[(2S)-2-amino-2-carboxyethyl]carbamoylamino}-5-chloro-4-methylbenzenesulfonate]
[1]; 0.3 mg/kg single i.v., 24 hours after the administration
  mean serum iPTH concentration: 140 pg/mL
[1]; 0.3 mg/kg single i.v., 48 hours after the administration
  mean serum iPTH concentration: 338 pg/mL
[1]; 3 mg/kg single i.v., 24 hours after the administration
  mean serum iPTH concentration: 138 pg/mL
[1]; 3 mg/kg single i.v., 48 hours after the administration
  mean serum iPTH concentration: 280 pg/mL
[1]; 30 mg/kg single i.v., 24 hours after the administration
  mean serum iPTH concentration: 118 pg/mL
[1]; 30 mg/kg single i.v., 48 hours after the administration
  mean serum iPTH concentration: 245 pg/mL
[1]; Rattus norvegicus, iv, plasma concentration, rats, read-out: 50% effective concentration, EC50 value, for decreasing the serum iPTH concentration
  EC50: 0.075 µg/mL
[1]; logistic curve fitting, 48 hours after the administration vs given dose
  lower limit value of the serum iPTH concentration (simulated): 203.0 pg/mL
[1]; renal failure rat models, during 48 hours after the administration, relation to dose
  decrease of serum iPTH and Ca concentrations: sufficiently decreased during the 48 hours after the administration but the decreases were gradual with respect to the increase in the dose
[2]; 0.025 mg dose group
  percentage decrease in the serum iPTH concentration: 27%
[2]; 0.05 mg dose group
  percentage decrease in the serum iPTH concentration: 48%
[2]; 0.1 mg dose group
  percentage decrease in the serum iPTH concentration: 44%
[2]; 0.2 mg dose group
  percentage decrease in the serum iPTH concentration: 57%
[2]; 0.4 mg dose group
  percentage decrease in the serum iPTH concentration: 78%
[2]; 0.6 mg dose group
  percentage decrease in the serum iPTH concentration: 69%
[2]; 0.8 mg dose group
  percentage decrease in the serum iPTH concentration: 66%
[2]; single administration, just before the dialysis
  time the serum iPTH lowering effect continued after the administration: up to 66 hours
[2]; single administration, observed in the 0.4 mg and higher dose groups
  vomiting: non-severe and mild
[2]; single administration, observed in the 0.6 mg and higher dose groups
  nausea: non-severe and mild
[2]; single i.v. 0.025 to 0.8 mg, relation to dose
  Cmax and AUC in plasma: increased with the increase in the given dose
